Test systems include SK-OV-3; HOP-62; HT-29; RPMI-8226; UO-31; OVCAR-4; SF-295; HOP-92; UACC-62; HL-60; EKVX; UACC-257; MDA-N; T47D; A549; SK-MEL-5; K562; SF-268; MDA-MB-435.
Common to all, as to assay: growth of human tumour cells (NCI), 48 h

Structures are written as SMILES.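 Assay format: 96-well plates, 48-hour exposure. GI50: concentration for 50% inhibition of growth.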 Activity calls are given as the source filed them. Rule as the data show it: active = GI50 up to about 1.1 µM and inactive = higher.

Take `CC1(C)CC2=NO[Se]3=C2C(=NO3)C1`: the GI50 is 4.52 µM (inactive) in the experiment on SK-OV-3; 2.99 µM (inactive) in the experiment with HOP-62; 0.929 µM (active) in the experiment on HT-29; 3.14 µM (inactive) in the experiment with RPMI-8226; 2.98 µM (inactive) in the experiment on UO-31; 3.41 µM (inactive) in the experiment on OVCAR-4. The GI50 in the experiment on SF-295 is 2.36 µM (inactive); with HOP-92 it was 2.63 µM (inactive); in the experiment with UACC-62, 2.27 µM (inactive); with HL-60, 2.22 µM (inactive); with EKVX, 2.8 µM (inactive); with UACC-257 it was 2.17 µM (inactive). Besides, the GI50 in the experiment with MDA-N is 1.95 µM (inactive); in the experiment with T47D it was 6.07 µM (inactive); with A549, 3.42 µM (inactive); in the experiment on SK-MEL-5 it was 1.81 µM (inactive); in the experiment with K562, 2.72 µM (inactive); in the experiment with SF-268, 5.3 µM (inactive). Moreover, the GI50 in the experiment with MDA-MB-435 is 3.43 µM (inactive).
Regarding `O=C(Nn1c(-c2ccccc2)nc2ccccc2c1=O)c1cccc([N+](=O)[O-])c1`, the GI50 in the experiment on SK-OV-3 is > 100 µM (inactive); with HOP-62, > 100 µM (inactive); with HT-29 it was 79.8 µM (inactive); in the experiment on RPMI-8226, 46.8 µM (inactive); with UO-31, 39.3 µM (inactive); with OVCAR-4 it was 86.1 µM (inactive). Also, the GI50 with HOP-92 was 35.2 µM (inactive); in the experiment on UACC-62 it was 29.2 µM (inactive); with HL-60 it was > 100 µM (inactive); in the experiment with EKVX it was 57.9 µM (inactive); in the experiment with UACC-257, > 100 µM (inactive); in the experiment with MDA-N, > 100 µM (inactive). The GI50 was < 0.01 µM (active) in the experiment on T47D; 44.4 µM (inactive) in the experiment on A549; 37.6 µM (inactive) with SK-MEL-5; > 100 µM (inactive) in the experiment with K562; > 100 µM (inactive) in the experiment with SF-268; > 100 µM (inactive) in the experiment on MDA-MB-435.
`COC(=O)CC1C(C)(C)C(=O)C2CC3=C4CC(=O)OC(c5ccoc5)C4(C)CCC3C1(C)C2=O` (configuration not stated): the GI50 with SK-OV-3, in the experiment with HOP-62, with HT-29, in the experiment on RPMI-8226, in the experiment with OVCAR-4 and in the experiment with SF-295 was > 100 µM (inactive) throughout. Further, the GI50 is > 100 µM (inactive) in the experiment with HOP-92; > 100 µM (inactive) in the experiment with UACC-62; 44.4 µM (inactive) in the experiment with HL-60; > 100 µM (inactive) in the experiment with EKVX; > 100 µM (inactive) in the experiment on UACC-257; > 100 µM (inactive) with MDA-N. Also, the GI50 with T47D, with A549, in the experiment on SK-MEL-5, in the experiment with K562, in the experiment with SF-268 and in the experiment on MDA-MB-435 was > 100 µM (inactive) in each case.
As to `CCCCCCCCCCCCCCCCCCNc1ccn(C2OC(CO)C(O)C2O)c(=O)n1` (configuration not stated), the GI50 was > 100 µM (inactive) in the experiment on SK-OV-3; > 100 µM (inactive) in the experiment on HOP-62; > 95.5 µM (inactive) in the experiment with HT-29; 34 µM (inactive) with RPMI-8226; > 100 µM (inactive) in the experiment on UO-31; > 100 µM (inactive) in the experiment with OVCAR-4. The GI50 in the experiment on SF-295 was > 100 µM (inactive); in the experiment on HOP-92, > 100 µM (inactive); in the experiment with UACC-62, > 100 µM (inactive); with HL-60, 2.49 µM (inactive); with EKVX, > 100 µM (inactive); in the experiment on UACC-257, > 100 µM (inactive). For the same molecule, the GI50 in the experiment on MDA-N was > 100 µM (inactive); in the experiment with T47D, > 40.7 µM (inactive); in the experiment on A549, 79.8 µM (inactive); with SK-MEL-5, > 100 µM (inactive); with K562, > 73.8 µM (inactive); with SF-268, > 100 µM (inactive). The GI50 in the experiment with MDA-MB-435 was > 100 µM (inactive).
As to `CC(CO)CCNc1ncnc2c1ncn2CCC#N` (configuration not stated), the GI50 with SK-OV-3, in the experiment with HOP-62, in the experiment with HT-29, in the experiment with RPMI-8226, in the experiment with UO-31 and in the experiment on OVCAR-4 was > 100 µM (inactive) in each case. For the same molecule, the GI50 with SF-295, with HOP-92, in the experiment on UACC-62, in the experiment with HL-60, with EKVX and in the experiment with UACC-257 was > 100 µM (inactive) in each case. Further, the GI50 in the experiment on MDA-N, in the experiment on T47D, with A549, in the experiment with SK-MEL-5, with K562 and with SF-268 was > 100 µM (inactive) throughout. In addition, the GI50 in the experiment on MDA-MB-435 is > 100 µM (inactive).
As for `COc1cc2c(cc1OC)CC(N=[N+]=[N-])c1cc(OC)c(OC)cc1/C=C\2` (configuration not stated), the GI50 is 38.5 µM (inactive) in the experiment on SK-OV-3; 77.6 µM (inactive) in the experiment on HOP-62; 44.5 µM (inactive) in the experiment with HT-29; 35.3 µM (inactive) in the experiment on RPMI-8226; 38.5 µM (inactive) in the experiment on UO-31; 99.3 µM (inactive) with OVCAR-4. The GI50 with SF-295 is 31.8 µM (inactive); in the experiment with HOP-92 it was 12.9 µM (inactive); in the experiment with UACC-62, 30 µM (inactive); in the experiment with HL-60, 10 µM (inactive); in the experiment with EKVX, 43.2 µM (inactive); in the experiment with UACC-257, 46 µM (inactive). Besides, the GI50 with MDA-N was 5.75 µM (inactive); with T47D, 75 µM (inactive); in the experiment on A549, 38.8 µM (inactive); in the experiment on SK-MEL-5, 23.8 µM (inactive); with K562, 27.2 µM (inactive); with SF-268 it was 51.8 µM (inactive). Besides, in the experiment on MDA-MB-435, the GI50 was 10.8 µM (inactive).
As to `Cc1ccc2nc(Cl)c(/C=N/N3C(=O)/C(=C/c4ccc(N(C)C)cc4)N=C3c3ccccc3)cc2c1`, the GI50 in the experiment with SK-OV-3 is > 100 µM (inactive); in the experiment with HOP-62, 42.8 µM (inactive); in the experiment with HT-29, 63.7 µM (inactive); in the experiment with RPMI-8226 it was 23.7 µM (inactive); with UO-31 it was 37 µM (inactive); in the experiment with OVCAR-4, 70 µM (inactive). For the same molecule, the GI50 was 29.9 µM (inactive) in the experiment with SF-295; 71.3 µM (inactive) in the experiment on HOP-92; 43.4 µM (inactive) in the experiment with UACC-62; 32.4 µM (inactive) in the experiment on HL-60; 80.9 µM (inactive) with EKVX; 80.2 µM (inactive) in the experiment on UACC-257. The GI50 with MDA-N is 29.1 µM (inactive); with T47D, 43.4 µM (inactive); with A549, 37.8 µM (inactive); in the experiment with SK-MEL-5 it was 48.5 µM (inactive); in the experiment on K562, 59.4 µM (inactive); with SF-268, 37.2 µM (inactive). For the same molecule, the GI50 with MDA-MB-435 is 22.1 µM (inactive).
Consider `CCC/C=C/C=C/C1CC(O)C(O)C(=O)C1CO` (configuration not stated), for which the GI50 in the experiment with SK-OV-3, in the experiment on HT-29, in the experiment with RPMI-8226, with UO-31, with OVCAR-4 and in the experiment with SF-295 was > 100 µM (inactive) in each case. The GI50 in the experiment on HOP-92 was > 100 µM (inactive); in the experiment with UACC-62, > 100 µM (inactive); in the experiment with HL-60, 48.2 µM (inactive); in the experiment on EKVX it was > 100 µM (inactive); in the experiment with UACC-257, > 100 µM (inactive); in the experiment with MDA-N, > 100 µM (inactive). Also, the GI50 in the experiment with T47D, in the experiment with A549, in the experiment on SK-MEL-5, in the experiment on K562, in the experiment with SF-268 and with MDA-MB-435 was > 100 µM (inactive) throughout.
Regarding `CC(C)(C)C(=O)C(N)C(=O)C(C)(C)C`, the GI50 with SK-OV-3, with HOP-62, with RPMI-8226, with UO-31, with OVCAR-4 and with SF-295 was > 100 µM (inactive) each time. For the same molecule, the GI50 in the experiment with HOP-92, in the experiment on UACC-62, with HL-60, with UACC-257, in the experiment with MDA-N and in the experiment on T47D was > 100 µM (inactive) in each case. Further, the GI50 with A549, with SK-MEL-5, with K562, with SF-268 and in the experiment with MDA-MB-435 was > 100 µM (inactive) each time.
Regarding `O=C(c1cccnc1)N1N=C(c2ccc3c(c2)OCO3)CC1(O)c1cc(F)c(Cl)cc1Cl` (configuration not stated), the GI50 in the experiment with SK-OV-3 was 27.9 µM (inactive); with HOP-62, 18 µM (inactive); with HT-29, 17.7 µM (inactive); with RPMI-8226, 27.2 µM (inactive); in the experiment with UO-31, 17.3 µM (inactive); in the experiment with OVCAR-4, 22.4 µM (inactive). For the same molecule, the GI50 in the experiment with SF-295 is 19.1 µM (inactive); in the experiment on HOP-92, 20.7 µM (inactive); in the experiment on HL-60, 20.2 µM (inactive); in the experiment on EKVX it was 20.5 µM (inactive); in the experiment with UACC-257, 21.1 µM (inactive); in the experiment with MDA-N, 29.3 µM (inactive). Also, the GI50 in the experiment on T47D was 3.59 µM (inactive); with A549, 28.6 µM (inactive); in the experiment with SK-MEL-5, 15 µM (inactive); in the experiment with K562, 27.9 µM (inactive); in the experiment on SF-268, 19.9 µM (inactive); in the experiment with MDA-MB-435, 27 µM (inactive).
Take `COc1cc2c(cc1OC)C(=O)/C(=C/c1cc(Cl)cc(Cl)c1)C2`: the GI50 in the experiment on HOP-62 is 9.35 µM (inactive); with HT-29 it was 2.59 µM (inactive); in the experiment on RPMI-8226, 4.94 µM (inactive); in the experiment on UO-31, > 100 µM (inactive); in the experiment on OVCAR-4, 17.1 µM (inactive); in the experiment with SF-295, 2.49 µM (inactive). The GI50 in the experiment with HOP-92 was 18.7 µM (inactive); in the experiment on UACC-62, 3.39 µM (inactive); with HL-60, 1.35 µM (inactive); in the experiment on EKVX, 19.8 µM (inactive); with UACC-257 it was 26 µM (inactive); in the experiment with MDA-N it was 1.57 µM (inactive). Moreover, the GI50 with T47D was 7.4 µM (inactive); with A549, 12.1 µM (inactive); with SK-MEL-5 it was 2.54 µM (inactive); with K562, 0.859 µM (active); in the experiment on SF-268 it was 21.4 µM (inactive); in the experiment on MDA-MB-435, 1.7 µM (inactive).

Values taken from ChEMBL document CHEMBL1201862, “PubChem BioAssay data set” (2004).
